Source: patent US8349862B2, “Pyridine derivatives for the treatment of metabolic disorders related to insulin resistance or hyperglycemia” (Piramal Healthcare Limited, priority 2006, dated 2013)

What was measured:
Human PPARγ = target: T1, Human PPARγ (Homo sapiens, UniProt P37231); test: Human PPARγ transactivation assay (luciferase reporter, HEK293 cells); format: cell-based
T1 construct: Human full length PPARγ cDNA was cloned into pSG5 expression vector; expressed in transfected cells; host or cells: HEK293
T1 sequence (P37231 1-505): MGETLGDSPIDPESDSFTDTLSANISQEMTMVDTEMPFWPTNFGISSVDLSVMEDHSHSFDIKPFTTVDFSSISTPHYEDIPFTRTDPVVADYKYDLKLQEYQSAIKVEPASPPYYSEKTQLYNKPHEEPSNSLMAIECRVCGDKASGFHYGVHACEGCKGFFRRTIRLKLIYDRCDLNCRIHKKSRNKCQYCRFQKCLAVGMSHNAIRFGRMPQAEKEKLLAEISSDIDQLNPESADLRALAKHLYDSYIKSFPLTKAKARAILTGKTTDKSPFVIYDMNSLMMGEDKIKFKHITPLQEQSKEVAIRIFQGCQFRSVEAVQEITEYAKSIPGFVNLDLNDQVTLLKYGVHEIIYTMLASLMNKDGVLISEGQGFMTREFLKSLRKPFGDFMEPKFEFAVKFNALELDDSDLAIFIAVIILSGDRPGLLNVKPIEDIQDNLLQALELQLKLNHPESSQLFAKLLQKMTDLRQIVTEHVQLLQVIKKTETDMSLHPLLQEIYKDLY
Description: The assay was designed as in the reference, Biochem. Biophys. Res. Comm. 175:865-871, 1991, the disclosure of which is incorporated by reference for the teaching of the assay.
Human PPARγ activity was evaluated by transactivation using a luciferase reporter gene. […] Human full length PPARγ cDNA was cloned into pSG5 expression vector (Stratagene, Lo Jolla, Calif.).
HEK293 cells were seeded in 24 well plates and grown in DMEM supplemented with 10% (v/v) FCS. After 24 hours, they were transfected with 100 ng of hPPARγ receptor and 300 ng of AOX-3×PPRE-LUC reporter construct per well using Fugen 6 transfection reagent (Roche, Indianapolis, Ind.). […] The control was 0.1% DMSO. After 48 hours, transactivation activity was determined by luciferase assay using Steady Glow reagent (Promega, Madison, Wis.).

[1] = tested on: genetically diabetic db/db BL/6J mice; test: Screening in db/db BL/6J mice: reduction of plasma glucose; format: in vivo; conditions: 100 mpk bid, 10 days
Description: The protocol was designed as in references. • 1.
The screening of compounds was based on their ability to reduce the plasma glucose levels in genetically diabetic db/db BL/6J mice.
Male db/db mice (obtained from the Animal House of Nicholas Piramal Research Centre, Goregaon, Mumbai, India) were used for this study (body weight in the range of 30-40 g and age is 6-8 weeks) and were kept eight per cage in individually ventilated cages at controlled temperature (22±1° C.) and humidity (45±5%). Food and water were provided ad libitum during their laboratory stay, except for four hours fasting prior to blood sample collection. 12 hours light and dark cycle was followed during the whole study period.
After 4 hours fasting blood samples were collected from mice. Mice showing plasma glucose levels between 300 to 500 mg/dl were divided in groups (8-10 per group) such that the mean plasma glucose levels and variation within the group, for each group, is nearly the same. After grouping, mice in respective groups received treatment with 0.5% CMC vehicle, standard compound or test compounds for 10 days.
After 4 hours fasting, mice were anaesthetized using isoflurane (inhalation anesthetic), and blood samples were collected through the retro orbital plexus. Collected blood samples were centrifuged at 7000 rpm for 10 minutes at 4° C.; Separated plasma was used for estimation of plasma glucose using diagnostic kits (Diasys, Germany). Plasma glucose levels of treated groups were normalized with control group using the following formula, which accounted for the changes in control group.
Formula used for normalization was *: {1−(Ratio of mean plasma glucose levels of control group on day 10 to day 0)/(Ratio of plasma glucose levels of treated group on day 10 to day 0)}×100.

lean C57Bl6/J mice = test: Evaluation of antiobesity, acute study: food intake in fasted lean mice; format: in vivo; conditions: 100 mg/kg intraperitoneally, 2 hours after food introduction, p<0.001 vs vehicle
Excerpt: The effect of standard (Sibutramine), Compound 1 and Compound 11 on food intake in lean C57Bl6/J mice at 2, 4, 6 and 24 hrs post-food introductions is indicated.
The assay was designed as in reference, PCT publication WO 2003086306, the disclosure of which is incorporated by reference for the teaching of the assay.
Male C57Bl6/J mice, weighing 20-25 g, were housed individually in the animal facility. Water and Chow (Amrut Laboratory Animal feed, Sangli, Maharashtra, India) were available ad libitum. One day before the study, the animals were weighed and separated into treatment groups having similar average body weight. For the experiment, the animals were deprived of food overnight for 16 hours. They were dosed intraperitoneally with test compounds (100 mg/kg) or comparator standard (Sibutramine, 3 mg/kg) in saline vehicle (10 mL/kg). Half an hour after drug administration the animals were presented with a pre-weighed amount of food in the food cup. Food that remained in the cup was measured at various time points. The effect of standard, and test compounds on food intake in fasted lean C57Bl6/J mice at 2, 4, 6 and 24 hrs post-food introductions was evaluated. […] (*** p<0.001 vs vehicle treated controls) (b) Chronic Study

[2] = tested on: diet induced obese (DIO) C57Bl6/J mice; test: Evaluation of antiobesity, chronic study: diet induced obese mice; format: in vivo; conditions: 200 mg/kg intraperitoneally, 10 days of treatment
Description: Diet induced obese (DIO) mice were treated with either standard (Sibutramine) or Compound 1 for 10 days.
Cumulative body weight gain of diet induced obese (DIO) mice treated with either standard (Sibutramine) or Compound 1 for 10 days is indicated.
The assay was designed as in the reference, British Journal of Pharmacology, 132, 1898-1904, 2001, the disclosure of which is incorporated by reference for the teaching of the assay. Male C57Bl6/J mice (3-4 weeks of age) were housed in groups of 10 animals per cage in the animal facility. High fat diet (D12451 Research Diets Inc., New Brunswick, N.J. 08901, USA), 45% kcal from fat) and water were provided ad libitum for 14 weeks. After this period, the animals were housed individually in cages. The animals were weighed and separated into groups with similar body weight. They were acclimatized to the experimental procedures for 2 days Animals were dosed intraperitoneally with test compound (200 mg/kg) or the standard (Sibutramine, 3 mg/kg) in 10 ml/kg of 0.5% CMC vehicle between 10:00 h-12:00 h. After drug administration the animals were presented with a pre-weighed amount of food in the food cup. Weight of feed remaining in the cup and body weight were recorded daily just prior to dosing. The change in weight and cumulative food intake were computed. The results are indicated in FIG. 2 and FIG. 3. • Conclusions: 1. […]

CC(=O)N1CCN(c2ccc(Oc3ncc(NS(=O)(=O)c4ccc(Cl)cc4Cl)cc3Cl)cc2)CC1 [Compound 1, N-(6-(4-(4-Acetylpiperazin-1-yl)phenoxy)-5-chloropyridin-3-yl)-2,4-dichlorobenzene-sulfonamide]
PPARγ activity (% of rosiglitazone) (Human PPARγ): 6.4 % of rosiglitazone | Normalization with control (plasma glucose reduction) [1]: 46.07 ± 4.55 | Inhibition of food intake (lean C57Bl6/J mice): effective in inhibiting food intake | Cumulative body weight gain [2]: effective in reducing cumulative body weight gain | Cumulative food intake [2]: effective in reducing cumulative food intake
